Results on 8 molecules are retold here after patent US7176313B2, “Anti acid-fast bacterial agent containing pyridonecarboxylic acids as active ingredient” (Daiichi Pharmaceutical Co., Ltd., priority 2000, dated 2007).

A short description of data set [1]: Mouse acute toxicity test. It is filed as in vivo, Male Slc:ddY mice. To be noted: intravenous; for survival of mice after administration / acute toxicity: text summary of Table 9; for Mortality (dead/ test) / acute toxicity: mice. The procedure:
Mouse Acute Toxicity Test
Male Slc:ddY mice at age of 5-weeks were used as test animals. For dissolving the compounds, 0.1 mol/l NaOH (in saline) was used. Mice were administered intravenously at a rate of 0.1 ml/30 seconds at a dosing volume of 10 ml/kg.

The subject of data set [2] is M. avium. As to the kind of experiment: Antibacterial activity (MIC) against M. avium. It is filed as cell-based, Mycobacterium avium. To be noted: Mycobacterium avium, read-out: MIC. The procedure:
Antibacterial activity of the compounds of the invention was measured in accordance with the method described in the literature of Antimicrob. […] In the tables, “OFLX” is an abbreviation of “OFLOXAIN”.

In data set [3] the test system is Mycobacterium tuberculosis (RFP sensitive). The data set is described as follows: Antibacterial activity (MIC) against Mycobacterium tuberculosis (RFP sensitive). The class given is cell-based. The following applies: Mycobacterium tuberculosis, read-out: MIC.
In data set [4] the test system is reticulocytes (RC). As to the kind of experiment: Peripheral blood micronucleus test. The following applies: mice, intravenous; for MNRC (%) mean ±S.E. 24 hours: 24 hours after administration; for MNRC (%) mean ±S.E. 48 hours: 48 hours after administration; for micronucleus induction: (untreated control: 0.12±0.08). It is filed as in vivo, Male Slc:ddY mice. The procedure:
Peripheral Blood Micronucleus Test
Used animals and administration method are similar to those in the mouse acute toxicity test. Samples were prepared by collecting 5 μl each of blood sample from the tail vein at 24 and 48 hours after the administration, dropping the blood on a slide at which 0.1% acridine orange solution had been applied in advance, sealing the slide with a cover glass immediately, and allowing it to stand in a refrigerator for 24 hours.

The test system of data set [5] is M. intracellulare. The data set is described as follows: Antibacterial activity (MIC) against M. intracellulare. The class given is cell-based, Mycobacterium intracellulare. The procedure:
Antibacterial activity of the compounds of the invention was measured in accordance with the method described in the literature of Antimicrob. Agents and Chemother., 38, 2877 (1994), and the results are shown in Tables 3 to 8 in terms of MIC (μg/ml). In the tables, “OFLX” is an abbreviation of “OFLOXAIN”.

Values after ≈ are worked out from the molar mass of the structure shown. Read-outs that look alike come from different tables or passages of the source.

The term MIC denotes the lowest concentration found to suppress growth. Take `COc1c(N2CCN(C)CC2)c(F)cc2c(=O)c(C(=O)O)cn([C@@H]3C[C@@H]3F)c12` [Compd. 15, 6-Fluoro-1-[2-(S)-fluoro-1-(R)-cyclopropyl]-1,4-dihydro-8-methoxy-7-(4-methylpiperazin-1-yl)-4-oxoquinoline-3-carboxylic acid]: in data set [1], the “survival of mice after administration” value was “all mice were survived”. In addition, the “Mortality (dead/ test)” value in data set [1] (50 mg/kg) is reported as 0/5. Also, in data set [1], the acute toxicity entry was “relatively weak”. The MIC in data set [2] (M. avium N-357, Table 3) was found to be 0.39 µg/mL (≈ 0.991 µM); in data set [2] (M. avium N-444, Table 3), 0.78 µg/mL (≈ 1.98 µM); in data set [2] (M. avium N-458, Table 3) it was 0.2 µg/mL (≈ 0.508 µM); in data set [2] (M. avium N-472, Table 3), 1.56 µg/mL (≈ 3.97 µM); in data set [3] (H37RV, M. tuberculosis H37Rv, Table 5) it was 0.1 µg/mL (≈ 0.254 µM); in data set [3] (M. tuberculosis Kurono, Table 5), 0.05 µg/mL (≈ 0.127 µM). Further, the MIC in data set [3] (M. tuberculosis No. 40, Table 5) was 0.05 µg/mL (≈ 0.127 µM); in data set [3] (M. tuberculosis No. 41, Table 5), 0.025 µg/mL (≈ 0.0636 µM); in data set [3] (M. tuberculosis No. 43, Table 5), 0.39 µg/mL (≈ 0.991 µM); in data set [3] (M. tuberculosis No. 68, Table 5), 0.1 µg/mL (≈ 0.254 µM); in data set [5] (M. intracellulare N-338, Table 3), 1.56 µg/mL (≈ 3.97 µM); in data set [5] (Mycobacterium intracellulare, M. intracellulare N-313, Table 3, read-out: MIC), 0.39 µg/mL (≈ 0.991 µM). In addition, the minimal inhibitory concentration (MIC) in data set [5] (Mycobacterium intracellulare, M. intracellulare N-345, Table 3, read-out: MIC) was 3.13 µg/mL (≈ 7.96 µM); in data set [5] (Mycobacterium intracellulare, M. intracellulare N-294, Table 3, read-out: MIC), 1.56 µg/mL (≈ 3.97 µM). In addition, the “MNRC (%) mean ±S.E. 24 hours” value in data set [4] (50 mg/kg) stood at 0.20 ± 0.04%. Moreover, in data set [4] (50 mg/kg), the “MNRC (%) mean ±S.E. 48 hours” value was 0.14 ± 0.04%. In addition, the micronucleus induction result in data set [4] is reported as “weak”.

Take `COc1c(N2C[C@@H](C)N[C@@H](C)C2)c(F)cc2c(=O)c(C(=O)O)cn([C@@H]3C[C@@H]3F)c12` [Compd. 16, 7-(3,5-cis-Dimethylpiperazin-1-yl)-6-fluoro-1-[2-(S)-fluoro-1-(R)-cyclopropyl]-1,4-dihydro-8-methoxy-4-oxoquinoline-3-carboxylic acid]: in data set [1], the “survival of mice after administration” value was “all mice were survived”. For the same molecule, the “Mortality (dead/ test)” value in data set [1] (150 mg/kg) is reported as 0/5. The acute toxicity result in data set [1] is “relatively weak”. Further, the minimal inhibitory concentration (MIC) in data set [2] (M. avium N-357, Table 4 (series 2)) was 0.5 µg/mL (≈ 1.23 µM); in data set [2] (M. avium N-444, Table 4 (series 2)), 1 µg/mL (≈ 2.45 µM); in data set [2] (M. avium N-458, Table 4 (series 2)), 0.5 µg/mL (≈ 1.23 µM); in data set [2] (M. avium N-472, Table 4 (series 2)), 4 µg/mL (≈ 9.82 µM); in data set [3] (H37RV, M. tuberculosis H37Rv, Table 6 (series 2)), 0.12 µg/mL (≈ 0.295 µM); in data set [3] (M. tuberculosis Kurono, Table 6 (series 2)), 0.12 µg/mL (≈ 0.295 µM). Besides, the minimal inhibitory concentration (MIC) in data set [3] (M. tuberculosis No. 40, Table 6 (series 2)) was 0.12 µg/mL (≈ 0.295 µM); in data set [3] (M. tuberculosis No. 41, Table 6 (series 2)), 0.03 µg/mL (≈ 0.0736 µM); in data set [3] (M. tuberculosis No. 43, Table 6 (series 2)) it was 1 µg/mL (≈ 2.45 µM); in data set [3] (M. tuberculosis No. 68, Table 6 (series 2)), 0.12 µg/mL (≈ 0.295 µM); in data set [5] (Mycobacterium intracellulare, M. intracellulare N-294, Table 4 (series 2), read-out: MIC), 1 µg/mL (≈ 2.45 µM); in data set [5] (Mycobacterium intracellulare, M. intracellulare N-313, Table 4 (series 2), read-out: MIC) it was 0.12 µg/mL (≈ 0.295 µM). The MIC in data set [5] (Mycobacterium intracellulare, M. intracellulare N-338, Table 4 (series 2), read-out: MIC) was 0.5 µg/mL (≈ 1.23 µM); in data set [5] (Mycobacterium intracellulare, M. intracellulare N-345, Table 4 (series 2), read-out: MIC) it was 0.5 µg/mL (≈ 1.23 µM). The “MNRC (%) mean ±S.E. 24 hours” value in data set [4] (150 mg/kg) was 0.05 ± 0.03%. Also, the “MNRC (%) mean ±S.E. 48 hours” value in data set [4] (150 mg/kg) is 0.12 ± 0.02%. In addition, the micronucleus induction entry in data set [4] is listed as “weak”.

As a reminder, the melting point is the temperature of the solid-liquid transition. In the case of `COc1c(N2CCNC(CF)C2)c(F)cc2c(=O)c(C(=O)O)cn([C@@H]3C[C@@H]3F)c12` (stereo partly drawn) [Compd. 19, 6-Fluoro-1-[(1R,2S)-2-fluorocyclopropyl]-7-(3-fluoromethylpiperazin-1-yl)-1,4-dihydro-8-methoxy-4-oxoquinoline-3-carboxylic acid], the melting point lay in the range of 153 to 156 °C.

`COCC1CN(c2c(F)cc3c(=O)c(C(=O)O)cn([C@@H]4C[C@@H]4F)c3c2OC)CCN1` (stereo partly drawn) [Compd. 21, 6-Fluoro-1-[(1R,2S)-2-fluorocyclopropyl]-1,4-dihydro-8-methoxy-7-(3-methoxymethylpiperazin-1-yl)-4-oxoquinoline-3-carboxylic acid]: the melting point is 92 to 95 °C.

Regarding `COc1c(N2CCNC3(CC3)C2)c(F)cc2c(=O)c(C(=O)O)cn([C@@H]3C[C@@H]3F)c12` [Compd. 22, 7-{4,7-Diazaspiro[2.5]octan-7-yl}-6-fluoro-1-[(1R,2S)-2-fluorocyclopropyl]-1,4-dihydro-8-methoxy-4-oxoquinoline-3-carboxylic acid], the melting point is 164 to 167 °C (dec.).

In the case of `COc1c(C2CNC3(CCC3)CN2)c(F)cc2c(=O)c(C(=O)O)cn([C@@H]3C[C@@H]3F)c12` (stereo partly drawn) [Compd. 23, 7-{5,8-Diazaspiro[3.5]nonan-7-yl}-6-fluoro-1-[(1R,2S)-2-fluorocyclopropyl]-1,4-dihydro-8-methoxy-4-oxoquinoline-3-carboxylic acid], the melting point is 138 to 140 °C (dec.).

On to `COc1c(N2CCNC(C3CC3)C2)c(F)cc2c(=O)c(C(=O)O)cn([C@@H]3C[C@@H]3F)c12` (stereo partly drawn) [Compd. 24, 7-(3-Cyclopropylpiperazin-1-yl)-6-fluoro-1-[(1R,2S)-2-fluorocyclopropyl]-1,4-dihydro-8-methoxy-4-oxoquinoline-3-carboxylic acid], for which the melting point lay within 136 to 139 °C.

On to `COc1c(N2CCN3CCC2C3)c(F)cc2c(=O)c(C(=O)O)cn([C@@H]3C[C@@H]3F)c12` (stereo partly drawn) [Compd. 28, 7-{1,4-Diazabicyclo[3.2.1]octan-4-yl}-6-fluoro-1-[(1R,2S)-2-fluorocyclopropyl]-1,4-dihydro-8-methoxy-4-oxoquinoline-3-carboxylic acid], for which the melting point is 195 to 198 °C (dec.).
